Source: a melting point compilation (Tetko et al.; mined from patent text by program, amines drawn as free bases though some values may be those of a salt)

Point of comparison: `COc1ccc(C(=O)c2cc(-c3ccc(NC(C)=O)cc3)c(N3CCOCC3)s2)cc1`, melting point 198 °C. Against it:
- CN(C(=O)c1ccc(-c2ccccc2)cc1)C1N(C)C(c2ccc(F)cc2)=NC1(C(F)(F)F)C(F)(F)F (stereo not given) — lower, 186 to 187 °C
- O=S(CCc1ccccc1)CCc1ccccc1 — lower, 70 to 71 °C
- CN(C(=O)CN(O)C(N)=O)c1cccc(OCc2ccccc2)c1 — lower, 162 to 163 °C
- CCOC(COc1ccc(Cl)c2cccnc12)OCC — lower, 51 to 53 °C
- COc1cc(OC)c2c(c1)OC(C(C)(C)C#N)CC2=O (stereo not given) — lower, 170 °C
- O=C(Nc1ccc(CC2CCN(S(=O)(=O)N3CCCCC3)CC2)cc1)C(F)(F)F — lower, 156 to 157 °C
- CN(CCO)Cc1ccc2c(c1)c(=O)c(C(=O)NCc1ccc(Cl)cc1)cn2C — lower, 130 to 131 °C
- COc1ccc(Cl)cc1C(=O)NCCc1ccc(CCCCCCCC(=O)O)cc1 — lower, 103 to 106 °C
- COC(=O)c1scc2nc(SCc3cc(OC)ccn3)[nH]c12 — lower, 156 to 160 °C
- CN1CC=C(c2c[nH]c3ccc(NS(=O)(=O)N(C)C)cc23)CC1 — higher, 207 to 208 °C
- COC(=O)[C@@H]1[C@H](NC(=O)Cc2ccccc2)C(=O)N1Cc1ccc(OC)cc1OC (relative stereo) — lower, 124 to 126 °C
- C=CCc1c(O)c(Cl)cc(F)c1N1C(=O)C2=C(CCCC2)C1=O — lower, 109 to 111 °C
- CC1Cc2cc3c(cc2C(C=Cc2ccc(N)cc2)=NN1)OCO3 (stereo not given) — lower, 159 to 161 °C
- COc1cccc2c1CCN(c1nc(C)[nH]c(=O)c1[N+](=O)[O-])CC2 — higher, > 200 °C
- C[C@@H](O)CN1CC(c2cccc(C(F)(F)F)c2)C1 — lower, 81 to 82 °C
- CC(C)(O)COCc1onc(-c2ccccc2)c1-c1ccc(S(N)(=O)=O)cc1 — lower, 160 to 162 °C
- CC1=C(S(C)(=O)=O)C(c2ccccc2[N+](=O)[O-])C(C(=O)OC2CCCC2)=C(N=CN(C)C)N1 (stereo not given) — lower, 175 °C
- O=C(c1ccc(Cl)cc1)N1N=C(C(F)(F)F)CC1(O)c1cc(F)ccc1F (stereo not given) — lower, 110 to 113 °C
- CC(C)c1nc2c(nc1C(C)C)-c1c(c(-c3ccc(C(=O)O)cc3)nn1Cc1cccnc1)CC2 — higher, 204 to 206 °C
- COc1ccc2cc([C@H](C)C(=O)NNC(=O)CCCO)ccc2c1 — lower, 149 to 151 °C
- COc1ccc2cc(-n3c(=O)[nH]c4ccccc43)cc(C)c2n1 — higher, 280 °C
- COc1cc(N(C)C)c(Cl)cc1C(=O)NC1CCN(Cc2ccc(Cl)cc2)C1 (stereo not given) — lower, 172 to 173 °C
- CC(C)C(=O)CNC(=O)c1ccc(Cl)cc1 — lower, 118 to 119 °C
- CN(C)C(=O)/C=C/c1ccc(C(=O)c2c(-c3ccc(O)cc3)sc3cc(O)ccc23)cc1 — higher, 208 to 211 °C
- Cc1ccc2c(c1)cc(Cc1ccc(C(=O)O)cc1)n2S(=O)(=O)c1cccc(C(C)(C)C)c1 — lower, 161 °C
- CC(=CC(C)(O)c1ccc(Cl)cc1Cl)n1cncn1 (stereo not given) — lower, 101 °C
- O=C1C(CCO)Oc2cc(F)ccc2N1Cc1ccccc1[N+](=O)[O-] (stereo not given) — lower, 123 to 124 °C
- CCCCCCCCC1(CCCCCCCC)c2cc(Cl)ccc2-c2ccc(Cl)cc21 — lower, 50 to 51 °C
- Cn1c(=O)c(-c2ccc(Cl)cc2Cl)cc2c3cc(C=O)ccc3n(C)c21 — higher, 284 °C
- COC(=O)c1c(C)nc(C)c(C(=O)Cl)c1-c1ccccc1[N+](=O)[O-] — lower, 96 to 98 °C
- Cc1nc(-c2ccccc2)nc(-c2ccncc2)c1C(=O)O — higher, 270 to 271 °C
- COC(=O)C1=C(C=O)NC(C)=C(P2(=O)OCCCO2)C1c1ccccc1[N+](=O)[O-] (stereo not given) — lower, 135 to 136 °C
- O=C(CCCCOc1ccccc1)C(F)(F)F — lower, 50 to 51 °C
- CC(=O)OCCc1ccc2c(c1)C(=O)c1ccccc1CO2 — lower, 55 to 58 °C
- CS(=O)c1ccc(C2CCCC(=O)N2c2ccc(Cl)cc2)cc1 (stereo not given) — lower, 142 to 165 °C
- CC1CCCCC1C(=O)Nc1ccc(-c2ncc(-c3ccc(NC(=O)C4CCCCCC4)cc3)[nH]2)cc1 (stereo not given) — higher, 258 to 260 °C
- CC(C)c1cnc(NC(=O)Nc2cccc(N)c2)s1 — lower, 113 to 115 °C
- COc1cc(OC(F)F)nc(N)n1 — lower, 106 to 107 °C
- Clc1ccc(N=c2ssnc2Cl)cc1Cl — lower, 89 to 90 °C
- CNC(=S)NS(=O)(=O)c1cc(CCNC(=O)c2cc(Cl)ccc2OC)ccc1-c1ccc(OC)cc1 — lower, 185 to 188 °C
- O=C(O)c1cccc(C(=O)C=Cc2ccc(OCc3ccc4ccccc4n3)cc2)c1O — higher, 233 to 235 °C
- COc1ccc(S(=O)(=O)N(CCn2ccnc2)c2ccc(Cl)cc2Cc2c(F)cccc2F)cc1OC — lower, 160 °C
- Cc1ccc(-c2ccccc2C(=O)O)cc1C(=O)NCC12CC3CC(CC(C3)C1)C2 — lower, 85 to 92 °C
- O=C(O)[C@@H]1C[C@@H](C(=O)O)N(C(=O)OCc2ccccc2)C1 — lower, 98 to 100 °C
- Oc1ccc2c(c1)OCC1c3ccccc3OC21 (stereo not given) — lower, 148 to 152 °C
- COC(=O)[C@H](Cc1c[nH]cn1)NC(=O)C(CCCCc1ccccc1)Cc1cccc2ccccc12 (stereo not given in full) — lower, 45 to 47 °C
- Oc1cnc2c(O)cccc2c1 — lower, 139 to 141 °C
- CCOc1ccc2c(c1)C(c1ccccc1)C(=O)N2 (stereo not given) — lower, 125 to 130 °C
- O=C(OCc1ccccc1)c1ccc(OCc2ccc(COc3ccc(C(=O)OCc4ccccc4)cc3)cc2)cc1 — lower, 154 to 157 °C
